Source: PubChem BioAssay AID1259411 (Chemical Carcinogenesis Research Information System (CCRIS), 2018)
Activity calls are given as the source filed them. The rule behind the calls is not given here.

System: rodent carcinogenicity bioassays, tumor incidence
Experiment: CCRIS carcinogenicity studies
Summary of the method: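 NCI-built, expert-reviewed records of carcinogenicity and related test outcomes (mutagenicity, tumor promotion/inhibition) compiled from published and report sources, historical span 1985-2011, not updated.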

O=[N+]([O-])c1ccc(N=Nc2c(O)ccc3ccccc23)c([N+](=O)[O-])c1
carcinogen call (Species: MOUSE, Strain/Sex: ICR/FEMALE, Route: DERMAL, Dose: 0, 1 MG IN 0.1 ML DISTILLED WATER 2/WK FOR A MEAN TOTAL DOSE OF 143.7 MG (STUDY DURATION: 18 MO)): inactive; negative
carcinogen call (Species: MOUSE, Strain/Sex: ICR/MALE, Route: DERMAL, Dose: 0, 1 MG IN 0.1 ML DISTILLED WATER 2/WK FOR A MEAN TOTAL DOSE OF 143.7 MG (STUDY DURATION: 18 MO)): inactive; negative

CCCCCl
carcinogen call (Species: MOUSE, Strain/Sex: B6C3F1/FEMALE, Route: GAVAGE, Dose: 0, 250, 500 MG/KG IN CORN OIL 5 D/WK FOR 103 WK, Dose: 0, 250, 500 MG/KG IN CORN OIL 5 D/WK FOR 103 WK): inactive; negative
carcinogen call (Species: MOUSE, Strain/Sex: B6C3F1/MALE, Route: GAVAGE, Dose: 0, 500, 1000 MG/KG IN CORN OIL 5 D/WK FOR 103 WK, Dose: 0, 500, 1000 MG/KG IN CORN OIL 5 D/WK FOR 103 WK): inactive; negative
carcinogen call (Species: RAT, Strain/Sex: F344/FEMALE, Route: GAVAGE, Dose: 0, 60, 120 MG/KG IN CORN OIL 5 D/WK FOR 103 WK, Dose: 0, 60, 120 MG/KG IN CORN OIL 5 D/WK FOR 103 WK): inactive; negative
carcinogen call (Species: RAT, Strain/Sex: F344/MALE, Route: GAVAGE, Dose: 0, 60, 120 MG/KG IN CORN OIL 5 D/WK FOR 103 WK, Dose: 0, 60, 120 MG/KG IN CORN OIL 5 D/WK FOR 103 WK): inactive; negative

CC(O)C(=O)O (centres undefined)
carcinogen call (Species: RAT, Strain/Sex: F344/FEMALE, Route: ORAL, Dose: 0, 2.5, 5% IN DRINKING WATER FOR 104 WK (MEAN TOTAL INTAKE 0; 237.7; 412.1 G/RAT) (STUDY DURATION: 113 WK), Dose: 0, 2.5, 5% IN DRINKING WATER FOR 104 WK (MEAN TOTAL INTAKE 0; 237.7; 412.1 G/RAT) (STUDY DURATION: 113 WK)): inactive; negative
carcinogen call (Species: RAT, Strain/Sex: F344/MALE, Route: ORAL, Dose: 0, 2.5, 5% IN DRINKING WATER FOR 104 WK (MEAN TOTAL INTAKE 0; 329.4; 625.4 G/RAT) (STUDY DURATION: 113 WK), Dose: 0, 2.5, 5% IN DRINKING WATER FOR 104 WK (MEAN TOTAL INTAKE 0; 329.4; 625.4 G/RAT) (STUDY DURATION: 113 WK)): inactive; negative

CC(=O)O[C@]1(C(C)=O)CC[C@H]2[C@@H]3C=C(C)C4=CC(=O)CC[C@]4(C)[C@H]3CC[C@@]21C
carcinogen call (Species: DOG, Route: ORAL, Tumor Site: Type of Lesion: MAMMARY GLAND): active; positive

C=C(C)C(N)=O
carcinogen call (Species: MOUSE, Strain/Sex: DDY, Route: INTRAPERITONEAL, Dose: 0, 2.35 MMOL/KG 1/2 D FOR 5 DOSES (STUDY DURATION: 6 MO), Tumor Site: Type of Lesion: LUNG: ADENOMA): active; positive
carcinogen call (Species: MOUSE, Strain/Sex: DDY, Route: INTRAPERITONEAL, Dose: 0, 2.35 MMOL/KG 1/D FOR 5 D (STUDY DURATION: 6 MO), Tumor Site: Type of Lesion: LUNG: ADENOMA): active; positive

O=C(O)c1ccc(N=Nc2ccc(O)c(C(=O)O)c2)cc1
carcinogen call (Species: MOUSE, Strain/Sex: NMRI/FEMALE, Route: ORAL, Dose: 0, 100, 300, 900 MG/KG BW/D IN DIET FOR 107 WK (HIGH DOSE INCREASED TO 1800 MG/KG BW FROM WK 21) (STUDY DURATION: 107 WK, Dose: 0, 100, 300, 900 MG/KG BW/D IN DIET FOR 107 WK (HIGH DOSE INCREASED TO 1800 MG/KG BW FROM WK 21) (STUDY DURATION: 107 WK): inactive; negative
carcinogen call (Species: MOUSE, Strain/Sex: NMRI/MALE, Route: ORAL, Dose: 0, 100, 300, 900 MG/KG BW/D IN DIET FOR 120 WK (HIGH DOSE INCREASED TO 1800 MG/KG BW FROM WK 21) (STUDY DURATION: 120 WK, Dose: 0, 100, 300, 900 MG/KG BW/D IN DIET FOR 120 WK (HIGH DOSE INCREASED TO 1800 MG/KG BW FROM WK 21) (STUDY DURATION: 120 WK): inactive; negative
carcinogen call (Species: RAT, Strain/Sex: SPRAGUE-DAWLEY/MALE, Route: ORAL, Dose: 0, 300, 900, 2700 MG/KG BW/D IN DIET FOR 118 WK (HIGH DOSE REDUCED TO 1800 MG/KG BW FROM WK 68) (STUDY DURATION: 118 WK), Dose: 0, 300, 900, 2700 MG/KG BW/D IN DIET FOR 118 WK (HIGH DOSE REDUCED TO 1800 MG/KG BW FROM WK 68) (STUDY DURATION: 118 WK)): inactive; negative
carcinogen call (Species: RAT, Strain/Sex: SPRAGUE/DAWLEY/FEMALE, Route: ORAL, Dose: 0, 300, 900, 2700 MG/KG BW/D IN DIET FOR 119 WK (HIGH DOSE REDUCED TO 1800 MG/KG BW FROM WK 68) (STUDY DURATION: 119 WK), Dose: 0, 300, 900, 2700 MG/KG BW/D IN DIET FOR 119 WK (HIGH DOSE REDUCED TO 1800 MG/KG BW FROM WK 68) (STUDY DURATION: 119 WK)): inactive; negative

CN(C)P(=O)(N(C)C)N(C)C
carcinogen call (Species: RAT, Route: INHALATION, Tumor Site: Type of Lesion: NASAL CAVITY): active; positive
carcinogen call (Species: RAT, Strain/Sex: STRAIN-CD/MALE,FEMALE, Route: INHALATION, Dose: 0, 10, 50, 100, 400, 4000 PPB FOR 6-24 MO (STUDY DURATION: 2 YR), Dose: 0, 10, 50, 100, 400, 4000 PPB FOR 6-24 MO (STUDY DURATION: 2 YR), Tumor Site: Type of Lesion: NASAL CAVITY: EPIDERMOID CARCINOMA): active; positive
carcinogen call (Species: RAT, Strain/Sex: STRAIN-CD/MALE,FEMALE, Route: INHALATION, Dose: 0, 10, 50, 100, 400, 4000 PPB FOR 6-24 MO, STUDY DURATION: 24-25 MO, Dose: 0, 10, 50, 100, 400, 4000 PPB FOR 6-24 MO, STUDY DURATION: 24-25 MO, Tumor Site: Type of Lesion: NASAL CAVITY: SQUAMOUS CELL PAPILLOMA, EPIDERMOID CARCINOMA, NASAL CAVITY (ADENOID): SQUAMOUS CELL CARCINOMA): active; positive

CC(C)(c1ccc(O)cc1)c1ccc(O)cc1 (tested in a mixture with another compound)
carcinogen call (Species: MOUSE, Strain/Sex: CF-1/FEMALE, Route: DERMAL, Dose: 0, 1, 10% EPIKOTE 828 IN ACETONE (TOTAL DOSE 0.2 ML) 2/WK APPLIED TO DORSAL SKIN FOR DURATION OF STUDY (STUDY DURATION:, Dose: 0, 1, 10% EPIKOTE 828 IN ACETONE (TOTAL DOSE 0.2 ML) 2/WK APPLIED TO DORSAL SKIN FOR DURATION OF STUDY (STUDY DURATION:, Tumor Site: Type of Lesion: HEMATOPOIETIC SYSTEM: RETICULUM-CELL SARCOMA, LYMPHOBLASTIC LYMPHOSARCOMA): active; positive
carcinogen call (Species: MOUSE, Strain/Sex: CF-1/FEMALE, Route: DERMAL, Dose: 0, 1, 10% EPON 828 IN ACETONE (TOTAL DOSE 0.2 ML) 2/WK APPLIED TO DORSAL SKIN FOR DURATION OF STUDY (STUDY DURATION: 2 Y, Dose: 0, 1, 10% EPON 828 IN ACETONE (TOTAL DOSE 0.2 ML) 2/WK APPLIED TO DORSAL SKIN FOR DURATION OF STUDY (STUDY DURATION: 2 Y): inactive; negative
carcinogen call (Species: MOUSE, Strain/Sex: CF-1/MALE, Route: DERMAL, Dose: 0, 1, 10% EPIKOTE 828 IN ACETONE (TOTAL DOSE 0.2 ML) 2/WK APPLIED TO DORSAL SKIN FOR DURATION OF STUDY (STUDY DURATION:, Dose: 0, 1, 10% EPIKOTE 828 IN ACETONE (TOTAL DOSE 0.2 ML) 2/WK APPLIED TO DORSAL SKIN FOR DURATION OF STUDY (STUDY DURATION:): inactive; negative
carcinogen call (Species: MOUSE, Strain/Sex: CF-1/MALE, Route: DERMAL, Dose: 0, 1, 10% EPON 828 IN ACETONE (TOTAL DOSE 0.2 ML) 2/WK APPLIED TO DORSAL SKIN FOR DURATION OF STUDY (STUDY DURATION: 2 Y, Dose: 0, 1, 10% EPON 828 IN ACETONE (TOTAL DOSE 0.2 ML) 2/WK APPLIED TO DORSAL SKIN FOR DURATION OF STUDY (STUDY DURATION: 2 Y): inactive; negative

c1ccc2nc3ccccc3cc2c1
carcinogen call (Species: RAT, Strain/Sex: OSBORNE-MENDEL/FEMALE, Route: LUNG IMPLANT, Dose: 0, 0.2, 1.0, 5.0 MG IN BEESWAX/TRICAPRYLIN (STUDY DURATION: LIFETIME), Dose: 0, 0.2, 1.0, 5.0 MG IN BEESWAX/TRICAPRYLIN (STUDY DURATION: LIFETIME)): inactive; negative

O=CCCl
carcinogen call (Species: MOUSE, Strain/Sex: B6C3F1/MALE, Route: ORAL, Dose: 0, 0.1 G/L DISTILLED DRINKING WATER FOR STUDY DURATION (17 MG/KG/D) (STUDY DURATION: 104 WK), Tumor Site: Type of Lesion: LIVER: HEPATOCELLULAR CARCINOMA, HEPATOCELLULAR ADENOMA): active; positive
